Results from patent US9248202B2, “Two-photon probe for detecting copper(II) ion and quantitative estimation of copper(II) ion in human tissue using the same” (Korea University Research and Business Foundation, priority 2014, dated 2016).

Experiment: pH dependence of Ired/Iblue ratio
Assay type: physicochemical
Conditions: 3 μM ACCu2, 200 μM copper(II) ion, excitation 365 nm
From the text: The excitation wavelength was 365 nm. […] The increase in the Ired/Iblue ratio at pH<6 can be attributed to the protonation of the nitrogen atom in the pyridine moiety as shown in [Chemical Formula 19]. On the other hand, the increase in the Ired/Iblue ratio at pH>7.0 can be attributed to the decreased copper(II) ion concentration due to the formation of Cu(OH)2. This outcome is different from that reported for the existing one-photon probe.

COCCOCCOCCOc1ccc2c(ccc3cc(C(=O)N4CCN(C(=O)c5ccc(CNC(=O)c6cc7cc8ccc(N(C)C)cc8cc7oc6=O)nc5)CC4)c(=O)oc32)c1 [ACCu2]
pH at which Ired/Iblue ratio shows a minimum: 6-7
